Results on four molecules are retold here after ChEMBL document CHEMBL4765314, “Rational design and biological evaluation of gemfibrozil modified Xenopus GLP-1 derivatives as long-acting hypoglycemic agents” (Eur J Med Chem, 2020).

Active and inactive are the calls of the source. Starred links: 1 amine or outer side, 2 acyl side, 3 side chain; linkers in the order of their positions; H or OH if unused. Positions of bridges follow the written chain, without caps; N, C: chain ends. Non-standard residues stand in square brackets, D forms with d. Residues, ends and D or L forms follow the SMILES beside them. Groups on a side chain read outwards from the residue. Chains are numbered I, II in the order given. ξ: configuration not given here. *: point of attachment. X3 = Cc1ccc(C)c(OCCCC(C)(C)C(=O)OCC(=O)NCCCCCC(=O)N[C@@H](CCC(=O)NCCCC[C@H](NO[*:1])C(=O)[*:2])C(=O)O)c1; X2 = Cc1ccc(C)c(OCCCC(C)(C)C(=O)OCC(=O)NCCCCC(NC(=O)COC(=O)C(C)(C)CCCOc2cc(C)ccc2C)C(=O)*)c1; Glycoloyl(O-gemfibrozoyl) = Cc1ccc(C)c(OCCCC(C)(C)C(=O)OCC(=O)*)c1; γGlu = O=C(O)[C@H](CCC(=O)[*:2])N[*:1]; Thr(3ξ) = CC(O)[C@H](N)C(=O)O; Aun = NCCCCCCCCCCC(=O)O; ξK = NCCCCC(N)C(=O)O; Ahx = NCCCCCC(=O)O

Series [1] concerns the target Glucagon-like peptide 1 receptor (Homo sapiens, UniProt P43220). As to the kind of experiment: Agonist activity at human GLP-1R expressed in HEK293 cells assessed as stimulation of cAMP accumulation incubated for 60 mins by HTRF assay. It is filed as functional, cell-based. Background: Changes in cAMP serve as a functional read-out for many G protein-coupled receptors.

The test system of series [2] is Mus musculus. In words: Hypoglycemic activity in 12 hrs fasted ICR mouse assessed as reduction in blood glucose level at 25 nmol/kg, ip dosed 30 mins before glucose challenge measured up to 120 mins by OGTT method. It is filed as functional, organism-based. Conditions: time 150.0 min.
The nature of series [3]: Stability in Sprague-Dawley rat plasma assessed as half life at 1000 ng/ml measured up to 48 hrs under shaking condition by LC-MS/MS analysis. It is filed as ADME, cell-free.
In a further series the target is Albumin (Homo sapiens, UniProt P02768). As to the kind of experiment: Binding affinity to human serum albumin assessed as retention factor by HPAC method. It is filed as ADME.
Albumin, sequence (P02768 whole entry): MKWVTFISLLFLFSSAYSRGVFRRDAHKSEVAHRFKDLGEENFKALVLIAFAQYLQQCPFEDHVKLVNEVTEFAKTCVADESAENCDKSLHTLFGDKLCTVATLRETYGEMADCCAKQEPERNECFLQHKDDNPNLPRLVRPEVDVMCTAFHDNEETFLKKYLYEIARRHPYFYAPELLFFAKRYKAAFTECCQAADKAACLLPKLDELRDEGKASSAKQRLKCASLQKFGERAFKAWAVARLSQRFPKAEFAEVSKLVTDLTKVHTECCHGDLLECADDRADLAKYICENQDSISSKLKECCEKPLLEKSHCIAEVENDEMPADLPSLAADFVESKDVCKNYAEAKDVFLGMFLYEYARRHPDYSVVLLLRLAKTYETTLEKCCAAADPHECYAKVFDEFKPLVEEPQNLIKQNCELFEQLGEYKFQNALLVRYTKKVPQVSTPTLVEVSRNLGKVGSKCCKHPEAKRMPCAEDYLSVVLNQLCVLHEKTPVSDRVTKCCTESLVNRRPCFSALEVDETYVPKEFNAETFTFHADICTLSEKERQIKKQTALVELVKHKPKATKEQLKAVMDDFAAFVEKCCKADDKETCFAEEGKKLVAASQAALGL
The subject of series [4] is Mus musculus. In words: Hypoglycemic activity in non-fasted db/db […] mouse assessed as reduction in blood glucose level at 25 nmol/kg, ip dosed 30 mins before glucose challenge measured up to 120 mins by OGTT method. It is filed as functional, organism-based.
Series [5] is described as follows: Half life in Sprague-Dawley rat at 50 nmol/kg, sc measured up to 24 hrs by LC-MS/MS analysis. It is filed as ADME, organism-based. Conditions: in vivo.
A short description of series [6]: Tmax in Sprague-Dawley rat at 50 nmol/kg, sc measured up to 24 hrs by LC-MS/MS analysis. It is filed as ADME, organism-based. To be noted: in vivo.
Series [7] is described as follows: Stability in Sprague-Dawley rat plasma at 1000 ng/ml measured up to 48 hrs under shaking condition by LC-MS/MS analysis. It is filed as ADME, cell-free.

Glucagon-like peptide 1 receptor, sequence (P43220 whole entry): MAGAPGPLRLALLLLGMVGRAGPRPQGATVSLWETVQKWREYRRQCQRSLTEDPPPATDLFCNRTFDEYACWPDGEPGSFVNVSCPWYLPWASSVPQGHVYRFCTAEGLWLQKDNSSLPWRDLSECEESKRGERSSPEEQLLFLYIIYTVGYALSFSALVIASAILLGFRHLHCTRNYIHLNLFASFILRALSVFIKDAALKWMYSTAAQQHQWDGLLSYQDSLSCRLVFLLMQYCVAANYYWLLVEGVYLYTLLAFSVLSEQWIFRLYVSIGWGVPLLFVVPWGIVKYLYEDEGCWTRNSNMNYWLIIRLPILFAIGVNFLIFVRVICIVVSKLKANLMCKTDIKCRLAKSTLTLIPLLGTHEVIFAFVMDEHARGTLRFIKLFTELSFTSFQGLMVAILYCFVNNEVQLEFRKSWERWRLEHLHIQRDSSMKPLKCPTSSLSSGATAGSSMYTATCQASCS

`CC[C@H](C)[C@H](NC(=O)[C@H](CC(C)C)NC(=O)[C@H](Cc1c[nH]c2ccccc12)NC(=O)[C@H](CCC(=O)O)NC(=O)[C@@H](NC(=O)[C@H](Cc1ccccc1)NC(=O)[C@H](CCC(=O)O)NC(=O)C(CCCCNC(=O)CC[C@H](NC(=O)C(CCCCNC(=O)COC(=O)C(C)(C)CCCOc1cc(C)ccc1C)NC(=O)COC(=O)C(C)(C)CCCOc1cc(C)ccc1C)C(=O)O)NC(=O)[C@H](C)NC(=O)[C@H](C)NC(=O)[C@H](CCC(=O)O)NC(=O)[C@H](CCC(=O)O)NC(=O)[C@H](CCC(=O)O)NC(=O)[C@H](CC(C)C)NC(=O)[C@H](Cc1ccc(O)cc1)NC(=O)[C@H](CCC(=O)O)NC(=O)[C@@H](NC(=O)[C@@H](NC(=O)[C@H](CC(=O)O)NC(=O)[C@H](CC(N)=O)NC(=O)[C@@H](NC(=O)[C@H](Cc1ccc(O)cc1)NC(=O)[C@@H](NC(=O)CNC(=O)[C@H](CCC(=O)O)NC(=O)CNC(=O)[C@@H](N)Cc1cnc[nH]1)[C@@H](C)O)[C@@H](C)O)C(C)C)[C@@H](C)O)[C@@H](C)CC)C(=O)N[C@@H](CCCCN)C(=O)NCC(=O)N[C@@H](CCCCN)C(=O)N1CCC[C@H]1C(=O)N[C@@H](CO)C(=O)N[C@@H](CO)C(=O)NCC(=O)N[C@@H](C)C(=O)N1CCC[C@H]1C(=O)N1CCC[C@H]1C(=O)N1CCC[C@H]1C(=O)N[C@@H](C)C(=O)O` (some centres undefined) (H-HGEGTYTNDVTEYLEEEAA[ξK]([γGlu-X2])EFIEWLIKGKPSSGAPPPA-OH): in series [1], the half-maximal effective concentration (EC50) (in general, the concentration needed to bring the measured effect to its halfway point) worked out at 0.11 nM. Besides, the outcome with Mus musculus [2] and in the series with Mus musculus [4] was Active. In addition, in series [3], the half-life – broadly, the time needed for the level to fall by half in the phase considered – at 1000 ng/ml is 30.4 h. Moreover, the K on Albumin was 11.8.
Regarding `CC[C@H](C)[C@H](NC(=O)[C@H](CC(C)C)NC(=O)[C@H](Cc1c[nH]c2ccccc12)NC(=O)[C@H](CCC(=O)O)NC(=O)[C@@H](NC(=O)[C@H](Cc1ccccc1)NC(=O)[C@H](CCC(=O)O)NC(=O)[C@H](CCCCNC(=O)CC[C@H](NC(=O)CCCCCNC(=O)COC(=O)C(C)(C)CCCOc1cc(C)ccc1C)C(=O)O)NC(=O)[C@H](C)NC(=O)[C@H](C)NC(=O)[C@H](CCC(=O)O)NC(=O)[C@H](CCC(=O)O)NC(=O)[C@H](CCC(=O)O)NC(=O)[C@H](CC(C)C)NC(=O)[C@H](Cc1ccc(O)cc1)NC(=O)[C@H](CCC(=O)O)NC(=O)[C@@H](NC(=O)[C@@H](NC(=O)[C@H](CC(=O)O)NC(=O)[C@H](CC(N)=O)NC(=O)[C@@H](NC(=O)[C@H](Cc1ccc(O)cc1)NC(=O)[C@@H](NC(=O)CNC(=O)[C@H](CCC(=O)O)NC(=O)CNC(=O)[C@@H](N)Cc1cnc[nH]1)[C@@H](C)O)[C@@H](C)O)C(C)C)C(C)O)[C@@H](C)CC)C(=O)N[C@@H](CCCCN)C(=O)NCC(=O)N[C@@H](CCCCN)C(=O)N1CCC[C@H]1C(=O)N[C@@H](CO)C(=O)N[C@@H](CO)C(=O)NCC(=O)N[C@@H](C)C(=O)N1CCC[C@H]1C(=O)N1CCC[C@H]1C(=O)N1CCC[C@H]1C(=O)N[C@@H](CO)C(=O)O` (stereo partly drawn) (H-HGEGTYTNDV[Thr(3ξ)]EYLEEEAAK([γGlu-Ahx-Glycoloyl(O-gemfibrozoyl)])EFIEWLIKGKPSSGAPPPS-OH), the EC50 in series [1] is 0.083 nM. Besides, the result in the series with Mus musculus [2] was Active. In series [3], the half-life at 1000 ng/ml was 17.2 h. At Albumin, the K is listed as 6.8.
Regarding `CC[C@H](C)[C@H](NC(=O)[C@H](CC(C)C)NC(=O)[C@H](Cc1c[nH]c2ccccc12)NC(=O)[C@H](CCC(=O)O)NC(=O)[C@@H](NC(=O)[C@H](Cc1ccccc1)NC(=O)[C@H](CCC(=O)O)NC(=O)[C@H](CCCCNC(=O)CC[C@H](NC(=O)CCCCCCCCCCNC(=O)COC(=O)C(C)(C)CCCOc1cc(C)ccc1C)C(=O)O)NC(=O)[C@H](C)NC(=O)[C@H](C)NC(=O)[C@H](CCC(=O)O)NC(=O)[C@H](CCC(=O)O)NC(=O)[C@H](CCC(=O)O)NC(=O)[C@H](CC(C)C)NC(=O)[C@H](Cc1ccc(O)cc1)NC(=O)[C@H](CCC(=O)O)NC(=O)[C@@H](NC(=O)[C@@H](NC(=O)[C@H](CC(=O)O)NC(=O)[C@H](CC(N)=O)NC(=O)[C@@H](NC(=O)[C@H](Cc1ccc(O)cc1)NC(=O)[C@@H](NC(=O)CNC(=O)[C@H](CCC(=O)O)NC(=O)CNC(=O)[C@@H](N)Cc1cnc[nH]1)C(C)O)C(C)O)C(C)C)[C@@H](C)O)[C@@H](C)CC)C(=O)N[C@@H](CCCCN)C(=O)NCC(=O)N[C@@H](CCCCN)C(=O)N1CCC[C@H]1C(=O)N[C@@H](CO)C(=O)N[C@@H](CO)C(=O)NCC(=O)N[C@@H](C)C(=O)N1CCC[C@H]1C(=O)N1CCC[C@H]1C(=O)N1CCC[C@H]1C(=O)N[C@@H](CO)C(=O)O` (stereo partly drawn) (H-HGEG[Thr(3ξ)]Y[Thr(3ξ)]NDVTEYLEEEAAK([γGlu-Aun-Glycoloyl(O-gemfibrozoyl)])EFIEWLIKGKPSSGAPPPS-OH), the EC50 in series [1] stood at 0.14 nM. Further, in the series on Mus musculus [2], the outcome was Active. Besides, the half-life at 1000 ng/ml in series [3] was 21.4 h. The K at Albumin is recorded as 7.6. Also, in series [5], the half-life was 3.7 h. For the same molecule, the Tmax (commonly the time from dosing to the highest level) in series [6] was 2.7 h.
On to `CC[C@H](C)[C@H](NC(=O)[C@H](CC(C)C)NC(=O)[C@H](Cc1c[nH]c2ccccc12)NC(=O)[C@H](CCC(=O)O)NC(=O)[C@@H](NC(=O)[C@H](Cc1ccccc1)NC(=O)[C@H](CCC(=O)O)NC(=O)[C@H](CCCCNC(=O)CC[C@H](NC(=O)CCCCCNC(=O)COC(=O)C(C)(C)CCCOc1cc(C)ccc1C)C(=O)O)NOC(=O)[C@H](C)NC(=O)[C@H](C)NC(=O)[C@H](CCC(=O)O)NC(=O)[C@H](CCC(=O)O)NC(=O)[C@H](CCC(=O)O)NC(=O)[C@H](CC(C)C)NC(=O)[C@H](Cc1ccc(O)cc1)NC(=O)[C@H](CCC(=O)O)NC(=O)[C@@H](NC(=O)[C@@H](NC(=O)[C@H](CC(=O)O)NC(=O)[C@H](CC(N)=O)NC(=O)[C@@H](NC(=O)[C@H](Cc1ccc(O)cc1)NC(=O)[C@@H](NC(=O)CNC(=O)[C@H](CCC(=O)O)NC(=O)CNC(=O)[C@@H](N)Cc1cnc[nH]1)[C@@H](C)O)[C@@H](C)O)C(C)C)[C@@H](C)O)[C@@H](C)CC)C(=O)N[C@@H](CCCCN)C(=O)NCC(=O)N[C@@H](CCCCN)C(=O)O` (I: H-HGEGTYTNDVTEYLEEEAA / II: EFIEWLIKGK-OH; linker I:C-II:N via X3), for which the concentration giving a half-maximal response (EC50) in series [1] was 0.093 nM. Also, the result in the series with Mus musculus [2] was Active. For the same molecule, the Stabilty result in series [7] is reported as “Stable”. The half-life at 1000 ng/ml in series [3] was 14.2 h.
